“Also recorded” adds a separate entry of the source.
Key:
[1] = test system: L1210 cells; assay: Bioassay of viable L1210 cells in brain after intracranial inoculation and ip drug; type: in vivo, mouse; conditions: for crossing of blood brain barrier / CNS penetration (words): mouse, in vivo
Excerpt: BDF1 mice were inoculated intracranially on day 0 with 1×10^5 L1210 cells. […] 24 hr after drug delivery the brains were collected, homogenized, and injected ip into untreated mice. Each mouse received the equivalent of half a brain. Thereafter, life span was monitored and, using inoculum-response data as a base of comparison, estimates were made of the numbers of viable cells in treated and control brains.

[2] = test system: L1210/6MP, 6TG, 6TGR cells; assay: L1210/6MP, 6TG, 6TGR cells surviving treatment; type: in vivo, mouse; conditions: for RCP (Residual Cell Population): L1210/6MP,6TG
Protocol: In Example G Compound 19 was tested against both L1210 cells and L1210 cells which were resistant to 6-Mercaptopurine, 6-Thioguanine and 6-Thioguanosine. […] As was noted above, drugs in the 6-Mercaptopurine family are presently among the drugs of choice for treatment of leukemia.

[3] = test system: L1210/Compound 18 cells; assay: Compound 18 resistant L1210 cells surviving treatment; type: in vivo, mouse
Protocol: In Examples G through K Compound 19 was tested against L1210 cell lines which had developed resistance to other known cancer chemotherapeutic agents.
In Example K, the results of which are shown in Table 11 below, Compound 19 was tested against drug resistant cell lines developed against Compound 18. […]

[4] = Solubility (maximum solubility); type: physicochemical
[5] = Toxicity / maximum tolerated dosage in mice; type: in vivo
Protocol: In Example N other compounds of the invention were tested against L1210 cells. […] Activity in Table 14-a is tabulated as both increases in life span and as cells surviving treatment and that in table 14-b as T/C.

[6] = test system: reticulum cell sarcoma M5076; assay: Reticulum cell sarcoma M5076 tumor weight in C57B1/6 mice; type: in vivo, mouse; conditions: qd days 1,3,5,7,9,11; for Tumor wt, staging day (mean ± 1SD): before treatment (day 15 post inoculation); for Tumor wt, evaluation day (mean ± 1SD): day 12 of treatment
Protocol: (§1) In this example Compound 19 was tested against reticulum cell sarcoma M5076. For this and certain other tests below, test results are shown as δT/δC. Utilizing this protocol the difference in tumor weight before treatment and after treatment of the treated animals compared to the control animals is determined.

[7] = test system: human mammary carcinoma MX-1; assay: Human mammary carcinoma MX-1 tumor weight in nu/nu mice; type: in vivo; conditions: qd days 1,3,5,7,9,11; for Tumor wt, staging day (mean ± 1SD): before treatment (day 17 post implant); for Tumor wt, evaluation day (mean ± 1SD): day 15 of treatment; for δT/δC: ≤20% moderate activity
Protocol: as §1
In Example P Compound 19 was tested against human mammary carcinoma MX-1.

[8] = test system: Colon 26 Adenocarcinoma; assay: Survival of CDF1 mice bearing Colon 26 Adenocarcinoma; type: in vivo, mouse; conditions: for T/C (%): ≥150% significant
Protocol: In Example Q Compound 19 was tested against Colon 26 Adenocarcinoma.

[9] = test system: Human Colon Adenocarcinoma CX-1; assay: Human Colon Adenocarcinoma CX-1 tumor weight in nu/nu mice; type: in vivo; conditions: for Tumor wt, staging day (mean ± 1SD): before treatment (day 33 post implant); for δT/δC: ≤20% active
Protocol: as §1
Compound 19 was further tested against Human Colon Adenocarcinoma CX-1. Activity against this tumor system is indicated at a δT/δC value of less than 20.

[10] = test system: Lewis lung carcinoma; assay: Activity against Lewis lung carcinoma; conditions: in vivo
[11] = Toxicity / maximum tolerated dosage in mice; type: in vivo; conditions: ip 104 mg/kg/inj, bid days 1,4,7; 11 CDF1 mice with Colon 26
[12] = ip 62 mg/kg/inj, bid days 1,4,7
[13] = ip 104 mg/kg/inj, qd days 1,3,5,7
[14] = ip 104 mg/kg/inj, qd days 1,4,7
[15] = ip 173 mg/kg/inj, qd days 1,3,5,7
[16] = ip 173 mg/kg/inj, qd days 1,4,7
[17] = day 12, ip 138.4 mg/kg/inj, qd days 1,3,5,7,9
[18] = day 12, ip 138.4 mg/kg/inj, qd days 1,4,7,10,13,16
[19] = day 12, ip 173.0 mg/kg/inj, qd days 1,3,5,7
[20] = day 15, ip 138.4 mg/kg/inj, qd days 1,3,5,7,9,11
[21] = day 15, ip 138.4 mg/kg/inj, qd days 1,4,7,10,13
[22] = day 16, ip 173.0 mg/kg/inj, qd days 1,3,5,7,9
[23] = day 16, ip 173.0 mg/kg/inj, qd days 1,4,7,10
[24] = day 17, ip 173.0 mg/kg/inj, qd days 1,4,7,10,13

Nc1nc([S+](N)[O-])c2ncn([C@@H]3O[C@H](CO)[C@@H](O)[C@H]3O)c2n1 (mixture of isomers) [Compound 19, 2-amino-9-β-D-ribofuranosyl-9H-purine-6-sulfinamide]
Residual cells (% of control brain) ([1]; 24 hr after single ip dose (mg/kg): Methotrexate 12, Adriamycin 3, 6-Mercaptopurine 160, Cytosine Arabinoside 1200, Cyclophosphamide 140, Compound 19 173, Tiazofurin 1200, BCNU 20): 7.9%
intracranial activity ([1]; intracranial L1210): significant reduction in the number of neoplastic cells in the brain; also recorded: active intracranially
cell/half brain day 2, cell number ([1]; ip 173 mg/kg day 1): 261016 cell/half brain
cell/half brain day 2, log10 ([1]; ip 173 mg/kg day 1): 5.42 log10
change due to drug, cells ([1]; ip 173 mg/kg day 1, vs control): -92.08%
change due to drug, log10 ([1]; ip 173 mg/kg day 1, vs control): -1.10 log10
crossing of blood brain barrier / CNS penetration (words) [1]: effectively cross the blood brain barrier
crossing of blood brain barrier / CNS penetration (words) ([1]; listed as 2-amino-9-β-D-ribofuranosyl-9H-purine-6-sulfinamide): able to penetrate the central nervous system; also recorded: penetrating the central nervous system
RCP (Residual Cell Population) ([2]; ip 37 mg/kg/inj, bid days 1,3,5,7): .28
RCP (Residual Cell Population) [2, 12]: .09
L1210/6MP, 6TG, 6TGR cells surviving (% of day zero inoculum) ([2]; ip 62 mg/kg, bid day 1): 15.9%
L1210/6MP, 6TG, 6TGR cells surviving (% of day zero inoculum) ([2]; ip 62 mg/kg, qd day 1): 15.9%
L1210/6MP, 6TG, 6TGR cells surviving (% of day zero inoculum) ([2]; ip 62 mg/kg, tid day 1): 15.9%
L1210/6MP, 6TG, 6TGR cells surviving (% of day zero inoculum) ([2]; ip 104 mg/kg, qd day 1): 54.5%
L1210/6MP, 6TG, 6TGR cells surviving (% of day zero inoculum) ([2]; ip 173 mg/kg, qd day 1): 4.6%
L1210/Compound 18 cells surviving (% of day zero inoculum) ([3]; ip 62 mg/kg/day, bid day 1): 27.4%
L1210/Compound 18 cells surviving (% of day zero inoculum) ([3]; ip 62 mg/kg/day, qd day 1): 100.0%
L1210/Compound 18 cells surviving (% of day zero inoculum) ([3]; ip 104 mg/kg/day, qd day 1): 17.9%
L1210/Compound 18 cells surviving (% of day zero inoculum) ([3]; ip 173 mg/kg/day, qd day 1): 7.5%
activity against Compound 18 resistant L1210 ([3]; mouse, in vivo): effective against those L1210 cell lines which have developed resistance against Compound 18; also recorded: active against cells which developed resistance to Compound 18
Maximum solubility (as dosage) [4]: 288 mg/kg
maximum solubility (as dose) [4]: 288 mg per kg
solubility relative to enantiomer B [4]: exhibits solubility characteristics of enantiomer B
water solubility [4]: water soluble
mice which died from drug toxicity ([5]; ip 104 mg/kg/inj, bid days 1,4,7, L1210-inoculated BDF1 mice): 1
toxicity (T/C column) ([5]; ip 288 mg/kg, qd day 1, L1210-inoculated BDF1 mice): TOX
mortality ([5]; mouse, in vivo, 104 mg/kg, bid days 1,4,7, L1210-inoculated mice, read-out: toxic deaths per number of animals in test group (converted)): 20%
Tumor wt, staging day (mean ± 1SD) ([6]; ip 110.8 mg/kg/inj group): 396 ± 116 mg
Tumor wt, staging day (mean ± 1SD) ([6]; ip 138.4 mg/kg/inj group): 355 ± 79 mg
Tumor wt, staging day (mean ± 1SD) ([6]; ip 173.0 mg/kg/inj group): 354 ± 81 mg
Tumor wt, evaluation day (mean ± 1SD) ([6]; ip 110.8 mg/kg/inj): 1121 ± 343 mg
Tumor wt, evaluation day (mean ± 1SD) ([6]; ip 138.4 mg/kg/inj): 855 ± 325 mg
Tumor wt, evaluation day (mean ± 1SD) ([6]; ip 173.0 mg/kg/inj): 409 ± 385 mg
δT/δC ([6]; ip 110.8 mg/kg/inj): 65.8
δT/δC ([6]; ip 138.4 mg/kg/inj): 45.4
δT/δC ([6]; ip 173.0 mg/kg/inj): 5.0
Tumor wt, staging day (mean ± 1SD) ([7]; ip 110.8 mg/kg/inj group): 321 ± 132 mg
Tumor wt, staging day (mean ± 1SD) ([7]; ip 138.4 mg/kg/inj group): 330 ± 118 mg
Tumor wt, staging day (mean ± 1SD) ([7]; ip 173.0 mg/kg/inj group): 323 ± 127 mg
Tumor wt, evaluation day (mean ± 1SD) ([7]; ip 110.8 mg/kg/inj): 943 ± 297 mg
Tumor wt, evaluation day (mean ± 1SD) ([7]; ip 138.4 mg/kg/inj): 884 ± 415 mg
Tumor wt, evaluation day (mean ± 1SD) ([7]; ip 173.0 mg/kg/inj): 489 ± 104 mg
δT/δC ([7]; ip 110.8 mg/kg/inj): 66.1%
δT/δC ([7]; ip 138.4 mg/kg/inj): 58.9%
δT/δC ([7]; ip 173.0 mg/kg/inj): 17.6%
Median survival time [8, 12]: 45 days post inoculation
T/C (%) [8, 12]: 196%
Median survival time ([8]; ip 62 mg/kg/inj, qd days 1-7): 40 days post inoculation
T/C (%) ([8]; ip 62 mg/kg/inj, qd days 1-7): 174%
Median survival time ([8]; ip 104 mg/kg/inj, bid days 1,4,7, group included 6 toxic deaths): 17 days post inoculation
Median survival time [8, 13]: 34 days post inoculation
T/C (%) [8, 13]: 148%
Median survival time [8, 14]: 31 days post inoculation
T/C (%) [8, 14]: 135%
Median survival time ([8]; ip 104 mg/kg/inj, qd days 1-7): 38 days post inoculation
T/C (%) ([8]; ip 104 mg/kg/inj, qd days 1-7): 165%
Median survival time [8, 15]: 42 days post inoculation
T/C (%) [8, 15]: 183%
Median survival time [8, 16]: 31 days post inoculation
T/C (%) [8, 16]: 135%
Tumor wt, staging day (mean ± 1SD) ([9]; ip 138.4 mg/kg/inj group, qd days 1,3,5,7,9): 226 mg
Tumor wt, staging day (mean ± 1SD) ([9]; ip 138.4 mg/kg/inj group, qd days 1,3,5,7,9,11): 220 mg
Tumor wt, staging day (mean ± 1SD) ([9]; ip 138.4 mg/kg/inj group, qd days 1,4,7,10,13): 225 mg
Tumor wt, staging day (mean ± 1SD) ([9]; ip 138.4 mg/kg/inj group, qd days 1,4,7,10,13,16): 215 mg
Tumor wt, staging day (mean ± 1SD) ([9]; ip 173.0 mg/kg/inj group, qd days 1,3,5,7): 222 mg
Tumor wt, staging day (mean ± 1SD) ([9]; ip 173.0 mg/kg/inj group, qd days 1,3,5,7,9): 229 mg
Tumor wt, staging day (mean ± 1SD) ([9]; ip 173.0 mg/kg/inj group, qd days 1,4,7,10): 226 mg
Tumor wt, staging day (mean ± 1SD) ([9]; ip 173.0 mg/kg/inj group, qd days 1,4,7,10,13): 226 mg
Tumor wt, evaluation day (mean ± 1SD) [9, 17]: 278 ± 114 mg
δT/δC [9, 17]: 25.0%
Tumor wt, evaluation day (mean ± 1SD) [9, 18]: 296 ± 186 mg
δT/δC [9, 18]: 38.9%
Tumor wt, evaluation day (mean ± 1SD) [9, 19]: 302 ± 144 mg
δT/δC [9, 19]: 38.5%
Tumor wt, evaluation day (mean ± 1SD) [9, 20]: 358 ± 125 mg
δT/δC [9, 20]: 46.6%
Tumor wt, evaluation day (mean ± 1SD) [9, 21]: 375 ± 155 mg
δT/δC [9, 21]: 50.7%
Tumor wt, evaluation day (mean ± 1SD) [9, 22]: 364 ± 254 mg
δT/δC [9, 22]: 39.9%
Tumor wt, evaluation day (mean ± 1SD) [9, 23]: 402 ± 187 mg
δT/δC [9, 23]: 52.1%
Tumor wt, evaluation day (mean ± 1SD) [9, 24]: 279 ± 121 mg
δT/δC [9, 24]: 15.8%
activity against Lewis lung carcinoma [10]: No activity
toxic deaths [11]: 6

— US5026836A, “6-sulfenamide, 6-sulfinamide and 6-sulfonamide purines, purine nucleosides, purine nucleotides, pharmaceutical compositions, and processes of making” (priority 1988, dated 1991)
